Assay results: patent US7659273B2, “Composition for accelerating bone fracture healing” (Mitsubishi Tanabe Pharma Corporation, priority 2001, dated 2010)

Experiments:
[1] = tested on: rabbit costicartilage cells; assay: Cartilage matrix (proteoglycan) production, Alcian blue staining (Experimental Examples 3 and 4); type: cell-based; details: summary of Tables 10 and 11
Text: Costicartilages were isolated from NZ line rabbit (Kitayama Labes., Co Ltd.; male; 4-week-old) and soaked into Hank's balanced salt solution (calcium- and magnesium-free; LifeTech Co., Ltd.; hereinafter, referred to as “HBSS”). One costicartilage and one costa were excised together, the adipose tissue and the muscle tissue were removed and then, the proliferating chondrocyte layer of costicartilage was excised. The collected proliferating chondrocyte layer was cut into sections with a surgical knife (FEATHER Safety Razor Co., Ltd.) and the all proliferating chondrocyte layer sections from 4 rabbits were combined in a centrifuge tube. To the centrifuge tube was added 40 ml of HBSS (pH 7.2) supplied with 0.1% tetrasodium ethylenediamine tetraacetate to obtain suspension of the proliferating chondrocyte layer sections, which was shaken at 37° C. for 20 minutes and centrifuged (1500 rpm, 10 minutes). The supernatant was aspirated off, and 40 ml of HBSS (pH 7.2) supplied with 0.2% trypsin was added to the tube to suspend the precipitates and shaken at 37° C. for 1 hour. The tube was centrifuged (1500 rpm, 10 minutes), and the supernatant was aspirated off. The precipitates were washed twice with HBSS, suspended in 100 ml of HBSS supplied with 0.1% collagenase (Wako Pure Chemical Industries, Ltd., 034-10533) and shaken at 37° C. for 3 hours. The content of the tube was passed through the Cell Strainer (pore size 40 μm) and the filtrate was divided into four centrifuge tubes. To each of all four tubes was added 40 ml of medium (α-MEM, LifeTech Co., Ltd.), and the tubes were centrifuged (1500 rpm, 10 minutes). The supernatant was aspirated off, and the resultant precipitates were collected in one tube with Pipetman. After addition of 40 ml of the same medium, the tube was re-centrifuged (1500 rpm, 10 minutes). Washing procedure comprising addition of medium followed by centrifugation was repeated additional three times. The precipitates were suspended in the same medium to give an about 5 ml suspension, and the cell number was counted.
The suspension of costicartilage cell described above was added to 24-well plate at 50,000 cells per well (day 1). […]
After removing the medium, cells in each well were fixed by addition of 1 ml of neutral buffer containing 4% paraformaldehyde and incubation for 30 minutes at room temperature. […] Absorbance at 620 nm was measured, and cartilage matrix amount (proteoglycan production amount) in each well was estimated, and proteoglycan production rate (%) of each test compound for vehicle (100%) was calculated.
The cartilage matrix (proteoglycan) production was determined using other compounds (compounds (52)-(55) and Compound (2) for comparison) in exactly the same manner as Experimental Example 3 above.

[2] = tested on: fibula fracture region of streptozotocin-induced diabetic rats; assay: Acceleration of fracture healing in diabetic rat (Experimental Example 7); type: in vivo; details: Example 7-(1) microspheres; for Bone mineral content: 6 weeks after sutura, DXA at fracture region; for Breaking Energy / Breaking force: 6 weeks, three-point bending test
Procedure: CD (SD) IGS rats (Charles River Japan, Inc.; male; 7-week-old) were housed for seven days at room temperature (23±2° C.) and 55±15% humidity. During the housing period, the rats were free to access commercially available food (from Oriental Bio Service; CRF-1).
Streptozotocin (Sigma), which induce diabetes, was dissolved in citrate-buffered saline (pH 4.5) to obtain 0.05 M streptozocin solution and injected intravenously to each rat at 60 mg/kg. One week later, blood was collected from tail end and blood-glucose level was determined with a blood-glucose monitor (Molecular Devices; M-SPmax250). Based on the measurements, rats were divided into groups so that a significant difference in glucose level may not occur among groups. The average blood-glucose level was from 426.12 to 428.23 mg/dl.
Under ether anesthesia, the left-lower legs of rats were shaved and sterilized with 70% aqueous ethanol, fibulas were exposed with scissors and cut with nail scissors (Natsume Seisakusyo; B17). The cut sections of the fibula were re-matched with tweezers. For the test groups (12 rats/group), the drug-containing microspheres prepared in Example 7-(1), which contains 0.03 or 0.1 mg of Compound (2), were placed around the cutting site using spatula followed by suturing with silk thread. For the control group (12 rats/group), the same amount of drug-free microspheres prepared in Control Example 2 were placed around the cutting site using spatula followed by suturing with silk thread. Following the suturing, every animal was sterilized with 70% aqueous ethanol. After six weeks from the sutura, under ether anesthesia, rats were sacrificed by laparotomy with bleeding, and the fibulas were excised.
Eight fibulas were randomly selected from those excised at 6 weeks after sutura and subjected to DXA bone densitometer (from Aloka; DCS-600) to determine bone mineral density and bone mineral content at fracture region, (scanning width: 1 mm).
The fibula used in the determination of mineral content was subjected to a three-point bending test with bone strength tester (from Muromachi Kikai Co., Ltd.; TK-252C) to determine bone strength. Briefly, the fibula was supported by two supports apart from each other by 8 mm and the cut section was positioned at the middle of these supports, i.e., 4 mm apart from the respective two supports. Loading (3 mm/minute) from upper direction was kept on the middle point (fracture section) of fibula until fibula begins to fracture. The maximum pressure necessary to break the bone was defined as the breaking force. The total energy spent to break the bone was defined as the breaking energy.
Four fibulas excised at 6 weeks after sutura was photographed with micro focus magnification radiography system (Fuji Photo Film Co. Ltd.; μFX-1000; tube voltage: 25 kV; tube current: […]; 20 seconds).

Q: What does the source list for `CCOc1cc2cc(CO)c(CO)c(-c3ccnc(-n4nc(-c5cccnc5)c5ccccc5c4=O)c3)c2cc1OCC` [Compound (2)]?
A: cartilage matrix (proteoglycan) production promoting effect (in words) [1]: remarkable matrix production promoting effect; Bone mineral content ([2]; drug content 0.03 mg): 13.69 ± 0.96 mg; Breaking Energy ([2]; drug content 0.03 mg): 1.53 ± 0.39 mJ; Breaking force ([2]; drug content 0.03 mg): 8.13 ± 1.20 N; Bone mineral content ([2]; drug content 0.1 mg): 14.60 ± 0.69 mg; Breaking Energy ([2]; drug content 0.1 mg): 2.91 ± 0.82 mJ; Breaking force ([2]; drug content 0.1 mg): 11.75 ± 2.14 N
